Results published in patent US8183239B2, “Substituted piperazines and piperidines as modulators of the neuropeptide Y2 receptor” (Janssen Pharmaceutica NV, priority 2005, dated 2012).

target: T1, Y2 receptors (Homo sapiens, UniProt P49146); assay: [35S]GTPγS binding assay in KAN-Ts cells (inhibition of PYY-stimulated binding); format: biochemical; details: KAN-Ts membranes
T1 construct: endogenous in cells; host or cells: KAN-Ts cells (membranes)
T1 sequence (P49146 1-381): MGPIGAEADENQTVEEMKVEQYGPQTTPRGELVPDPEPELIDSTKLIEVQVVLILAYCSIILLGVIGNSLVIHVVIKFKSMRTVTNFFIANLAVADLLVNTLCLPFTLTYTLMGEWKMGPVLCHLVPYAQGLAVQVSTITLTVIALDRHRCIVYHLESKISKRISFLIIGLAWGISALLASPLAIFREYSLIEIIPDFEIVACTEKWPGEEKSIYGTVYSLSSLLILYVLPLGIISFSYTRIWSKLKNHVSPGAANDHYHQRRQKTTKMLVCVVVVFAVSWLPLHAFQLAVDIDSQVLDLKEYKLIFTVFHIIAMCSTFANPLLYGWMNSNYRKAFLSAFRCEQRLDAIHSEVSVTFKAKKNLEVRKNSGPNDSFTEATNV
Method: [^35S] GTPγS binding assay in KAN-Ts cells
Membranes from KAN-Ts cells were prepared as described above. Membranes were thawed on ice and diluted in 50 mM Tris-HCl buffer, pH 7.4 containing 10 mM MgCl2, 1 mM EDTA, 100 mM NaCl, […], 0.25% BSA. Assay mixture ([…]) were preincubated with compounds for 30 min at rt. Then, […] of [^35S]GTPγS in assay buffer was added to a final concentration of 200 pM and the assay mixtures were incubated for 1 h at rt. Reactions were terminated by rapid filtration thought GF/C filters. Filters were washed twice with ice cold 50 mM Tris-HCl, pH 7.4 containing 10 mM MgCl2. Basal [^35S]GTPγS was measured in the absence of compounds. In initial experiments, nonspecific binding was measured in the presence of […]. This nonspecific binding never exceeded 10% of basal binding and was thus not subtracted from experimental data. Stimulation of [^35S]GTPγS is presented as percentage over basal and was calculated as one hundred times the difference between stimulated and basal binding (in cpm). […] EC50 (concentration of compound at which 50% of its own maximal stimulation is obtained) and IC50 (concentration of its own maximal inhibition of PYY-stimulated [^35S]GTPγS binding is obtained) were derived from the curves. IC50 values were corrected as follows: corrected IC50 (IC50corr)=IC50/(1+[PYY]/EC50 (PYY)) and pIC50corr=−log IC50corr.

For `CCNC(=O)C(c1ccccc1)C1CCN(c2ccc(NC(=O)Nc3c(C)noc3C)cc2F)CC1` (stereo not shown) [Example 10, 2-(1-{4-[3-(3,5-Dimethyl-isoxazol-4-yl)-ureido]-2-fluoro-phenyl}-piperidin-4-yl)-N-ethyl-2-phenyl-acetamide], the “functional behaviour in [35S]GTPγS assay” value was “antagonist”.

system: rats; assay: not given; details: icv administration; cited from earlier work

In the case of `N=C(N)NCCC[C@H](NC(=O)CC1(CC(=O)N2CCN(C3c4ccccc4NC(=O)c4ccccc43)CC2)CCCC1)C(=O)NCCn1c(=O)n(-c2ccccc2)n(-c2ccccc2)c1=O` (stereo partly shown) [BIIE0246], the ethanol self-administration is given as “dose dependently reduced ethanol self-administration”.

target: T1, Y2 receptors; assay: Radioligand binding assay ([125I]PYY, KAN-Ts cell membranes); details: Table 1, [125I]PYY 80 pM, average of results, read-out: IC50
Summary of the method: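 Membranes from KAN-Ts cells endogenously expressing Y2 incubated 1 h at rt with 80 pM [^125I]PYY ± test compound in HEPES buffer with NaCl, Ca^2+ and Mg^2+. Bound radioactivity collected by filtration; specific binding defined with […]. IC50 from sigmoidal fit, averaged over 3-8 duplicate experiments.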

Molecule `CCNC(=O)C(c1ccccc1)C1CCN(c2ccc(NC(=O)Nc3c(C)noc3C)cc2F)CC1` (stereo not shown) [Example 10, 2-(1-{4-[3-(3,5-Dimethyl-isoxazol-4-yl)-ureido]-2-fluoro-phenyl}-piperidin-4-yl)-N-ethyl-2-phenyl-acetamide] has an IC50 of 15 nM.

same assay, conditions: Table 2, [125I]PYY 80 pM, average of results, read-out: IC50

Point of comparison: `CCNC(=O)Cc1ccc(N2CCN(C(C(=O)N(CC)CC)c3ccccc3)CC2)c(F)c1` (stereo not shown) [Example 290, N,N-Diethyl-2-[4-(4-ethylcarbamoylmethyl-2-fluoro-phenyl)-piperazin-1-yl]-2-phenyl-acetamide], IC50 4300 nM. Against it:
- CCN(CC)C(=O)C(c1ccccc1)N1CCN(c2ccc(CC(=O)N3CCCCC3c3cccnc3)cc2F)CC1 (stereo not shown) [Example 280, N,N-Diethyl-2-(4-{2-fluoro-4-[2-oxo-2-(3,4,5,6-tetrahydro-2H-[2,3′]bipyridinyl-1-yl)-ethyl]-phenyl}-piperazin-1-yl)-2-phenyl-acetamide] — 7.5-fold lower, 570 nM
- CCC(CC)NC(=O)Cc1ccc(N2CCN(C(C(=O)N(CC)CC)c3ccccc3)CC2)c(F)c1 (stereo not shown) [Example 281, N,N-Diethyl-2-(4-{4-[(1-ethyl-propylcarbamoyl)-methyl]-2-fluoro-phenyl}-piperazin-1-yl)-2-phenyl-acetamide] — 7.7-fold lower, 560 nM
- CCN(CC)C(=O)C(c1ccccc1)N1CCN(c2ccc(CC(=O)N3CCCC3C)cc2F)CC1 (stereo not shown) [Example 282, N,N-Diethyl-2-(4-{2-fluoro-4-[2-(2-methyl-pyrrolidin-1-yl)-2-oxo-ethyl]-phenyl}-piperazin-1-yl)-2-phenyl-acetamide] — 4.6-fold lower, 940 nM
- CCN(CC)C(=O)C(c1ccccc1)N1CCN(c2ccc(CC(=O)N3CCCC3)cc2F)CC1 (stereo not shown) [Example 283, N,N-Diethyl-2-{4-[2-fluoro-4-(2-oxo-2-pyrrolidin-1-yl-ethyl)-phenyl]-piperazin-1-yl}-2-phenyl-acetamide] — 3.6-fold lower, 1200 nM
- CCN(CC)C(=O)Cc1ccc(N2CCN(C(C(=O)N(CC)CC)c3ccccc3)CC2)c(F)c1 (stereo not shown) [Example 284] — 2.9-fold lower, 1500 nM
- CCN(CC)C(=O)C(c1ccccc1)N1CCN(c2ccc(CC(=O)NCc3ccccc3)cc2F)CC1 (stereo not shown) [Example 285] — 2.3-fold lower, 1900 nM
- CCN(CC)C(=O)C(c1ccccc1)N1CCN(c2ccc(CC(=O)N(C)Cc3ccccc3)cc2F)CC1 (stereo not shown) [Example 286] — 2-fold lower, 2100 nM
- CCN(Cc1ccccc1)C(=O)Cc1ccc(N2CCN(C(C(=O)N(CC)CC)c3ccccc3)CC2)c(F)c1 (stereo not shown) [Example 287] — 2-fold lower, 2200 nM
- CCC(CC)NC(=O)Cc1ccc(N2CCN(C(C(=O)N3CCC(F)(F)C3)c3ccccc3)CC2)c(F)c1 (stereo not shown) [Example 288, 2-(4-{4-[2-(3,3-Difluoro-pyrrolidin-1-yl)-2-oxo-1-phenyl-ethyl]-piperazin-1-yl}-3-fluoro-phenyl)-N-(1-ethyl-propyl)-acetamide] — 2-fold lower, 2100 nM
- CCN(CC)C(=O)Cc1ccc(N2CCN(C(C(=O)N3CCC(F)(F)C3)c3ccccc3)CC2)c(F)c1 (stereo not shown) [Example 289, 2-(4-{4-[2-(3,3-Difluoro-pyrrolidin-1-yl)-2-oxo-1-phenyl-ethyl]-piperazin-1-yl}-3-fluoro-phenyl)-N,N-diethyl-acetamide] — within 1.5-fold, 3450 nM
- CCN(CC)C(=O)C(c1ccccc1)N1CCN(c2ccc(CC(=O)NC3CCCC3)cc2F)CC1 (stereo not shown) [Example 291, 2-[4-(4-Cyclopentylcarbamoylmethyl-2-fluoro-phenyl)-piperazin-1-yl]-N,N-diethyl-2-phenyl-acetamide] — 2-fold higher, 8700 nM
- CCC(CC)C(=O)Nc1ccc(N2CCN(C(C(=O)N(C)C)c3ccccc3)CC2)c(F)c1 (stereo not shown) [Example 292, N-{4-[4-(Dimethylcarbamoyl-phenyl-methyl)-piperazin-1-yl]-3-fluoro-phenyl}-2-ethyl-butyramide] — 41-fold lower, 104 nM
